Assay results from US8192962B2, “Processes for detecting toxic substances” (Daikin Industries, Ltd., priority 2001, dated 2012).

System: Transport facilitation protein genes
Test: DNA chip mRNA expression in yeast, transport facilitation protein genes (Table 5)
Assay type: cell-based, Saccharomyces cerevisiae S288C
Procedure: Yeast (Saccharomyces cerevisiae S288C (α SUC2mal mel gap2 CUP1)) were incubated at 25° C. on YPD medium (yeast extract 1%, polypepton 2%, glucose 2%). One of toxic chemical substances was added to the cells at logarithmic growth phase, and the cells were further incubated for two hours. Cells were cultured without any chemical substance in the same condition, and were used as control. Concentrations of the chemical substances were defined to inhibit the growth of the yeast but not lead to death.
After completion of the incubation, the culture was centrifuged to collect the cells. To the cells, sodium acetate buffer (50 mM sodium acetate, 10 mM EDTA, 1% SDS) was added, and the mixture was shaken at 65° C. for five minutes, followed by returning to room temperature, and obtaining the supernatant, of which the procedures were repeated two times. To the supernatant, ½ amount of a solution of phenol/chloroform was added, and the mixture was centrifuged to give a supernatant, which was added with an equal amount of chloroform, and the mixture was centrifuged to give a supernatant. To the supernatant, an equal amount of isopropanol containing 0.3 M sodium acetate was added, and the mixture was allowed to stand at room temperature for 30 minutes, after which the mixture was centrifuged to give a sediment of the whole RNAs. Seventy % ethanol was added to the sediment, and the mixture was again centrifuged to give a sediment, which was then dried and dissolved in water. mRNA was isolated from the whole RNAs as followings. In view of the fact that a poly A chain is attached to the 3′ terminus of mRNA, a polynucleotide having a poly T structure which was immobilized on the surface of latex beads was used to trap the mRNA, and then the mRNA was washed and eluted with spine column (Oligotex-dT30<Super>mRNA Purification Kit, Takara). Reverse transcription of the mRNA was conducted with a reverse transcriptase (Super Script II Reverse Transcriptase; catalogue No. 18064-014, GibcoBRL) using fluorescence-labeled nucleotides to give cDNAs that were introduced with Cy3-dUTP or Cy5-dUTP during the reverse transcription.
The labeled cDNAs were dissolved in TE buffer (10mM Tris-HCl/1 mM EDTA, pH8.0), and the solution was dropped on the DNA chip containing the whole genes of yeast (DNA Chip Research Inc. Japan) so that the cDNAs were hybridized on the DNA chip at 65° C. for over 12 hours. The fluoresces intensity of the DNA chip was read with a scanner, and the ratio relative to the fluorescence intensity resulting from the absence of chemical substance was estimated as the following, which is shown in Tables 1 to 9: […]

CCCCC[C@H](O)CC(=O)CCc1ccc(O)c(OC)c1 [(13), gingerol]
The level of expressed mRNA in the presence of chemical substance/The level of expressed mRNA in the absence of chemical substance (yeast gene YHL036W): 1.5
The level of expressed mRNA in the presence of chemical substance/The level of expressed mRNA in the absence of chemical substance (yeast gene YHL040C): 2.0
The level of expressed mRNA in the presence of chemical substance/The level of expressed mRNA in the absence of chemical substance (yeast gene YHL047C): 3.8
The level of expressed mRNA in the presence of chemical substance/The level of expressed mRNA in the absence of chemical substance (yeast gene YHR026W): 0.7
The level of expressed mRNA in the presence of chemical substance/The level of expressed mRNA in the absence of chemical substance (yeast gene YHR048W): 1.1
The level of expressed mRNA in the presence of chemical substance/The level of expressed mRNA in the absence of chemical substance (yeast gene YHR092C): 0.5
The level of expressed mRNA in the presence of chemical substance/The level of expressed mRNA in the absence of chemical substance (yeast gene YHR094C): 0.7
The level of expressed mRNA in the presence of chemical substance/The level of expressed mRNA in the absence of chemical substance (yeast gene YHR175W): 1.2
The level of expressed mRNA in the presence of chemical substance/The level of expressed mRNA in the absence of chemical substance (yeast gene YIL006W): 0.8
The level of expressed mRNA in the presence of chemical substance/The level of expressed mRNA in the absence of chemical substance (yeast gene YIL022W): 1.2
The level of expressed mRNA in the presence of chemical substance/The level of expressed mRNA in the absence of chemical substance (yeast gene YIL056W): 1.5
The level of expressed mRNA in the presence of chemical substance/The level of expressed mRNA in the absence of chemical substance (yeast gene YIL088C): 1.5
The level of expressed mRNA in the presence of chemical substance/The level of expressed mRNA in the absence of chemical substance (yeast gene YJL212C): 1.0
The level of expressed mRNA in the presence of chemical substance/The level of expressed mRNA in the absence of chemical substance (yeast gene YJR077C): 0.9
The level of expressed mRNA in the presence of chemical substance/The level of expressed mRNA in the absence of chemical substance (yeast gene YJR095W): 0.8
The level of expressed mRNA in the presence of chemical substance/The level of expressed mRNA in the absence of chemical substance (yeast gene YJR121W): 1.0
The level of expressed mRNA in the presence of chemical substance/The level of expressed mRNA in the absence of chemical substance (yeast gene YKL016C): 1.3
The level of expressed mRNA in the presence of chemical substance/The level of expressed mRNA in the absence of chemical substance (yeast gene YKL188C): 1.2
The level of expressed mRNA in the presence of chemical substance/The level of expressed mRNA in the absence of chemical substance (yeast gene YKL217W): 1.2
The level of expressed mRNA in the presence of chemical substance/The level of expressed mRNA in the absence of chemical substance (yeast gene YKL221W): 1.6
The level of expressed mRNA in the presence of chemical substance/The level of expressed mRNA in the absence of chemical substance (yeast gene YKR039W): 1.3
The level of expressed mRNA in the presence of chemical substance/The level of expressed mRNA in the absence of chemical substance (yeast gene YKR067W): 1.3
The level of expressed mRNA in the presence of chemical substance/The level of expressed mRNA in the absence of chemical substance (yeast gene YKR105C): 2.5
The level of expressed mRNA in the presence of chemical substance/The level of expressed mRNA in the absence of chemical substance (yeast gene YLL055W): 1.5
The level of expressed mRNA in the presence of chemical substance/The level of expressed mRNA in the absence of chemical substance (yeast gene YLR081W): 0.6
The level of expressed mRNA in the presence of chemical substance/The level of expressed mRNA in the absence of chemical substance (yeast gene YLR092W): 1.8
The level of expressed mRNA in the presence of chemical substance/The level of expressed mRNA in the absence of chemical substance (yeast gene YLR295C): 0.8
The level of expressed mRNA in the presence of chemical substance/The level of expressed mRNA in the absence of chemical substance (yeast gene YLR348C): 1.9
The level of expressed mRNA in the presence of chemical substance/The level of expressed mRNA in the absence of chemical substance (yeast gene YLR378C): 1.6
The level of expressed mRNA in the presence of chemical substance/The level of expressed mRNA in the absence of chemical substance (yeast gene YML116W): 0.8
The level of expressed mRNA in the presence of chemical substance/The level of expressed mRNA in the absence of chemical substance (yeast gene YMR162C): 0.9
The level of expressed mRNA in the presence of chemical substance/The level of expressed mRNA in the absence of chemical substance (yeast gene YNL055C): 2.4
The level of expressed mRNA in the presence of chemical substance/The level of expressed mRNA in the absence of chemical substance (yeast gene YNR072W): 1.5
The level of expressed mRNA in the presence of chemical substance/The level of expressed mRNA in the absence of chemical substance (yeast gene YOL119C): 1.6
The level of expressed mRNA in the presence of chemical substance/The level of expressed mRNA in the absence of chemical substance (yeast gene YOL156W): 1.7
The level of expressed mRNA in the presence of chemical substance/The level of expressed mRNA in the absence of chemical substance (yeast gene YOL158C): 1.4
The level of expressed mRNA in the presence of chemical substance/The level of expressed mRNA in the absence of chemical substance (yeast gene YOL163W): 2.4
The level of expressed mRNA in the presence of chemical substance/The level of expressed mRNA in the absence of chemical substance (yeast gene YOR035C): 2.5
The level of expressed mRNA in the presence of chemical substance/The level of expressed mRNA in the absence of chemical substance (yeast gene YOR130C): 2.1
The level of expressed mRNA in the presence of chemical substance/The level of expressed mRNA in the absence of chemical substance (yeast gene YOR153W): 11.8
The level of expressed mRNA in the presence of chemical substance/The level of expressed mRNA in the absence of chemical substance (yeast gene YOR270C): 1.3
The level of expressed mRNA in the presence of chemical substance/The level of expressed mRNA in the absence of chemical substance (yeast gene YOR273C): 2.6
The level of expressed mRNA in the presence of chemical substance/The level of expressed mRNA in the absence of chemical substance (yeast gene YOR316C): 1.6
The level of expressed mRNA in the presence of chemical substance/The level of expressed mRNA in the absence of chemical substance (yeast gene YOR332W): 2.2
The level of expressed mRNA in the presence of chemical substance/The level of expressed mRNA in the absence of chemical substance (yeast gene YPL036W): 0.3
The level of expressed mRNA in the presence of chemical substance/The level of expressed mRNA in the absence of chemical substance (yeast gene YPL134C): 1.0
The level of expressed mRNA in the presence of chemical substance/The level of expressed mRNA in the absence of chemical substance (yeast gene YPL265W): 1.1
The level of expressed mRNA in the presence of chemical substance/The level of expressed mRNA in the absence of chemical substance (yeast gene YPL271W): 1.2
The level of expressed mRNA in the presence of chemical substance/The level of expressed mRNA in the absence of chemical substance (yeast gene YPR124W): 0.6
The level of expressed mRNA in the presence of chemical substance/The level of expressed mRNA in the absence of chemical substance (yeast gene YPR194C): 1.0
